Where a SMILES comes first, the peptide text is derived from it. Bridges are numbered along the chain shown (N, C = ends). Roman numbers before positions name the chains, in order. Where no end group is shown, it is not given here.
Key:
Candida cells = experiment: Candidacidal activity in energy depleted (azide) cells; format: cell-based, Candida albicans; conditions: cells pre-incubated for 60 min in 5 mM NaN3 at 30°C, colony count assay
Description: (§1) The candidacidal activities of the peptides were tested by using standard microdilution plate assays, radial diffusion assays and broth dilution assay slightly modified from the procedure recommended by the National Committee for Clinical Laboratory Standards. For the candidacidal assays, C. albicans cells were grown in YPD medium and washed twice with 10 mM sodium phosphate buffer (NaPB; Na2HPO4, NaH2PO4, pH 7.4). The cells (1 x 10^6) were then mixed with different concentrations of peptides and incubated at 30°C with constant shaking for 60 min. For energy depletion experiments, cells were pre-incubated with 10 mM NaPB containing 5 mM NaN3 at 30°C for 60 min before the addition of peptides. The cell suspensions were diluted in 10 mM NaPB and aliquots of 500 cells were spread onto YPD agar plates then incubated for 24 h at 30°C to visualize the surviving colonies. Cell survival was expressed as a percentage of that for the control, and the loss of viability was calculated as [1 x (number of colonies from peptide-treated cells/number of colonies from control cells)] x 100. Candidacidal assays were performed in triplicate. For the radial diffusion assay, C. albicans cells were grown in YPD medium overnight and washed twice with 10 mM NaPB. Washed yeast-phase C. albicans cells (1 x 10^6 CFU) were trapped in thin underlay gels containing 9 mM sodium phosphate, 1 mM sodium citrate buffer, 1% (wt/vol) agarose (A6013; Sigma), and 0.3 mg of Sabouraud dextrose broth (Difco)/ml. After incubation at 37°C for 3 h, a 10 ml overlay gel of 1% agarose and 6% Sabouraud dextrose broth was poured on the underlay gel and then the plates were incubated overnight at 37°C. The clear-zone diameters were measured to the nearest 0.1 mm and graphed against the peptide concentration. Zone diameters were expressed in units (0.1 mm = 1 unit). For the broth dilution assay, the Candida strains were cultured in LYM broth for 18 h at 30°C. The numbers of yeasts were counted using a hemocytometer. Stock peptide solutions were prepared to a concentration of 320 μg/ml in distilled water, and were then serially diluted twofold, to 5 μg/ml. 100 μl aliquots of the diluted culture media containing candida cells (1 x 10^3) were dispensed into the wells of 96-well polypropylene microtiter plates (Costar 3879, Corning, NY), to which peptide solution (11 μl) was then added. In the experiments conducted to assess the candidacidal activity of peptides in the presence of salt, we used LYM supplemented with 150 mM NaCl for the culture medium, which was mixed with the peptide solution. The antifungal activities were evaluated after 24 h of incubation at 30°C by the observation of visible turbidity the wells. The MIC values were expressed as intervals (a–b), with a representing the highest tested concentration at which microbes continue to grow, and b representing the lowest concentration at which growth inhibition could be detected.
To confirm the killing effect of the peptides, washed Candida cells (1 × 10^7 cells/ml) were treated with the peptides and propidium iodide (PI) was added. For energy depletion experiments, cells were pre-incubated with 10 mM NaPB containing 5 mM NaN3 at 30°C for 60 min before the addition of peptides. Propidium iodide (PI) uptake was measured using a multi reader and calculated with the formula [propidium iodide (PI) uptake value of peptide-treated cells—propidium iodide (PI) value of control cells]
Fig 6 The effects of azide on killing activity of peptides. […]

[1] = CD spectra, secondary structure analysis; format: physicochemical; conditions: 200 μg/ml peptide
Description: Circular dichroism (CD) spectra of the six peptides (Hst5, P113, HHP1, di-PH2, di-WP2 and di-18Hc) were measured with a J-715 spectropolarimeter (Jasco, Tokyo, Japan). Two hundred micrograms of each peptide was resuspended in 1 ml of 10 mM NaPB (pH 7.0) (i) without other additives, (ii) with 10% laminarin (LAM) or (iii) with 50% trifluoroethanol (TFE) (a known helix-inducing solvent). The spectra were measured at room temperature in a 1-mm-path-length quartz cell. The scanning speed was 10 nm/min (180 to 260 nm), and each spectrum was the average of five scans.
Fig 3 CD spectra of Hst5, P113, di-18Hc and hybrid peptides. This study was performed with one concentration (200 μg/ml) of each peptide in various buffers: 10 mM sodium phosphate buffer (Red line), 50% TFE in phosphate buffer (green line) and 20 mg of laminarin in phosphate buffer.

Candida albicans cells = experiment: Confocal microscopy localization and FITC-peptide/PI uptake assay; format: cell-based; conditions: FITC-peptides and propidium iodide uptake assay, measured for 60 min
Description: To confirm the killing effect of the peptides, washed Candida cells (1 × 10^7 cells/ml) were treated with the peptides and propidium iodide (PI) was added. For energy depletion experiments, cells were pre-incubated with 10 mM NaPB containing 5 mM NaN3 at 30°C for 60 min before the addition of peptides. Propidium iodide (PI) uptake was measured using a multi reader and calculated with the formula [propidium iodide (PI) uptake value of peptide-treated cells—propidium iodide (PI) value of control cells] C. albicans cells were attached to concanavalin A (Sigma, 1 mg/ml solution in water) coated coverglass in chambered wells (Lab-Tek II). Cells (1 x 10^6) were deposited in each well, and 1 ml of 10 mM NaPB containing 5 μg PI (Sigma) and FITC-labeled peptides (Final concentration 10 μg/ml) were added to the chamber. Confocal images were acquired with an Olympus Fluoview FV10i-DOC (Olympus, Tokyo, Japan). ImageJ software was used for image acquisition and analysis.  Fig 5 Localizations of FITC-peptides in Candida albicans cells. C. albicans cells were incubated for 10 minutes with 10 μg/ml of FITC-peptides and visualized by confocal microscopy. […] FITC-peptides and PI uptake was measured for 60 min in Perkin Elmer 2030 reader (VictorX 3).

[2] = test system: laminarin (β-1,3-glucan polymer), C. albicans cell wall component; experiment: Binding/radial diffusion assay with laminarin; format: cell-based; conditions: peptide final 180 μg/ml, pre-incubated 2 h at 37°C, radial diffusion assay
Description: as §1, with “In the experiments conducted to assess the candidacidal activity of peptides in the presence of salt, we used LYM supplemented with 150 mM NaCl for the culture medium, which was mixed with the peptide solution.” left out
Binding of hybrid peptides to the surface of C. albicans cells was examined by assessing the inhibitory effect of fungal cell wall components on the antimicrobial activity of the hybrid peptides. 20 μl of a pre-determined concentration of the peptides was added to 80 μl of each polysaccharide (0.07–40 mg/ml in 10 mM NaPB) including laminarin (β-1,3-glucan polymer; Sigma), pustulan (β-1,6-glucan polymer; Calbiochem) or mannan (mannose polymer; Sigma) and incubated for 2 h at 37°C. The inhibitory effects of the polysaccharides on the antimicrobial activity of the peptides were assessed by radial diffusion assay as described above. […]

[3] = solvent 10mM NaPB (pH 7.0), room temperature, average of five scans

Compound | antimicrobial activities in energy depleted cells (Candida cells) | Secondary structure (%) Beta ([1]; solvent 10mM NaPB (pH 7.0)) [%] | Secondary structure (%) Random ([1]; solvent 10mM NaPB (pH 7.0)) [%] | Secondary structure (%) Turn ([1]; solvent 10mM NaPB (pH 7.0)) [%] | Secondary structure (%) Helix [1, 3] [%] | Secondary structure (%) Beta ([1]; solvent 50% TFE in 10 mM NaPB) [%] | Secondary structure (%) Helix ([1]; solvent 50% TFE in 10 mM NaPB) [%] | Secondary structure (%) Random ([1]; solvent 50% TFE in 10 mM NaPB) [%] | Secondary structure (%) Turn ([1]; solvent 50% TFE in 10 mM NaPB) [%] | FITC intensity in Candida cells (Candida albicans cells) | laminarin concentration at which antimicrobial activity was drastically decreased by pre-incubation [2] [mg/mL]
CC(C)C[C@H](NC(=O)CNC(=O)[C@H](Cc1c[nH]cn1)NC(=O)[C@H](Cc1c[nH]cn1)NC(=O)[C@H](CCCNC(=N)N)NC(=O)[C@H](CCCCN)NC(=O)[C@H](C)N)C(=O)N[C@@H](CC(N)=O)C(=O)N[C@@H](CSSC[C@H](NC(=O)[C@H](CC(N)=O)NC(=O)[C@H](CC(C)C)NC(=O)CNC(=O)[C@H](Cc1c[nH]cn1)NC(=O)[C@H](Cc1c[nH]cn1)NC(=O)[C@H](CCCNC(=N)N)NC(=O)[C@H](CCCCN)NC(=O)[C@H](C)N)C(=O)N[C@@H](C)C(=O)N[C@@H](CCCCN)C(=O)N[C@@H](Cc1ccccc1)C(=O)N[C@@H](Cc1c[nH]cn1)C(N)=O)C(=O)N[C@@H](C)C(=O)N[C@@H](CCCCN)C(=O)N[C@@H](Cc1ccccc1)C(=O)N[C@@H](Cc1c[nH]cn1)C(N)=O [di-PH2] (I: H-AKRHHGLNCAKFH-NH2 / II: H-AKRHHGLNCAKFH-NH2; disulfide I:9-II:9 (inferred); N-terminus assumed) | significantly reduced | 29.2 | 70.8 | 0.0 | 0.0 | 32.9 | 10.1 | 51.8 | 5.2 | increased in a time dependent manner | 5
AKRHHGYKRKFH-NH2 [P113] | significantly reduced | 0.0 | 95.3 | 4.7 | 0.0 | 34.8 | 4.4 | 60.8 | 0.0 | increased in a time dependent manner | 5

Reference: publication PMC4769088, “Antifungal Activity and Action Mechanism of Histatin 5-Halocidin Hybrid Peptides against Candida ssp” (PLoS ONE, 2016)
